Common to all, as to assay type: cell-based, human
Experiment [1] concerns Stat5a/b. Description: Constitutive Stat5a/b phosphorylation in K562 cells (Western blot). The method, then:
Exponentially growing K562 cells were treated with 5 μM Compound 1, Compound 2 or control for 3 h after which the cells were harvested. Cell pellets were solubilized in lysis buffer [10 mM Tris-HCl (pH 7.6), 5 mM EDTA, 50 mM sodium chloride, 30 mM sodium pyrophosphate, 50 mM sodium fluoride, 1 mM sodium orthovanadate, 1% Triton X-100, 1 mM phenylmethylsulfonyl fluoride, 5 μg/mlaprotinin, 1 μg/ml pepstatin A, and 2 μg/ml leupeptin], rotated end-over-end at 4° C. for 60 min, and insoluble material was pelleted at 12,000×g for 30 min at 4° C. The protein concentrations of clarified cell lysates were determined by simplified Bradford method (Bio-Rad Laboratories, Hercules, Calif.). Western blotting of the lysates was carried out using, as primary antibodies, the following antibodies at the following concentrations: anti-phosphotyrosine-Stat5a/b (Y694/Y699) mAb (1 μg/ml, Advantex BioReagents, Conroe, Tex.) or anti-Stat5ab mAb (1:250; BD Biosciences, San Jose, Calif.), anti-human Abl mAb (Calbiochem).
(§1) Exponentially growing K562 cells were treated with NBPP for 3 h or 6 h after which the cells were harvested. Exponentially growing K562 cells or imatinib-resistant K562 cells were treated with NBPP for 6 h or 16 h after which the cells were harvested. Cell pellets were solubilized in lysis buffer [10 mM Tris-HCl (pH 7.6), 5 mM EDTA, 50 mM sodium chloride, 30 mM sodium pyrophosphate, 50 mM sodium fluoride, 1 mM sodium orthovanadate, 1% Triton X-100, 1 mM phenylmethylsulfonyl fluoride, 5 μg/ml aprotinin, 1 μg/ml pepstatin A, and 2 μg/ml leupeptin], rotated end-over-end at 4° C. for 60 min, and insoluble material was pelleted at 12,000×g for 30 min at 4° C. The protein concentrations of clarified cell lysates were determined by simplified Bradford method (Bio-Rad Laboratories, Hercules, Calif.). […]

The subject of experiment [2] is Stat5a/b. Description: Constitutive Stat5a/b phosphorylation in imatinib-sensitive KCL22S cells (Western blot). As for the experimental part:
(§2) Exponentially growing KCL22S and KCL22R cells were treated with Compound 1 or Compound 2 at various concentrations for 3 h and 16 h (Compound 1) or 3 h, 6 h or 16 h (Compound 2) after which the cells were harvested. Cell pellets were solubilized in lysis buffer [10 mM Tris-HCl (pH 7.6), 5 mM EDTA, 50 mM sodium chloride, 30 mM sodium pyrophosphate, 50 mM sodium fluoride, 1 mM sodium orthovanadate, 1% Triton X-100, 1 mM phenylmethylsulfonyl fluoride, 5 μg/ml aprotinin, 1 μg/ml pepstatin A, and 2 μg/ml leupeptin], rotated end-over-end at 4° C. for 60 min, and insoluble material was pelleted at 12,000×g for 30 min at 4° C. The protein concentrations of clarified cell lysates were determined by simplified Bradford method (Bio-Rad Laboratories, Hercules, Calif.). Western blotting of the lysates was carried out using, as primary antibodies, the following antibodies at the following concentrations: anti-phosphotyrosine-Stat5a/b (Y694/Y699) mAb (1 μg/ml, Advantex BioReagents, Conroe, Tex.), anti-Stat5ab mAb (1:250; BD Biosciences, San Jose, Calif.) or anti-actin pAb (Sigma). Anti-actin was included as a control.
as §1
On the technique in general: A western blot detects proteins with antibodies after separation by electrophoresis.

Experiment [3] has as its system Stat5a/b. Description: Constitutive Stat5a/b phosphorylation in imatinib-resistant KCL22R cells (Western blot). As for the experimental part: as §2, §1
The mark [4] stands for this setting: KCL22S, various concentrations, 3 h and 16 h (Compound 1) or 3 h, 6 h or 16 h (Compound 2).
The mark [5] stands for this setting: KCL22R, various concentrations, 3 h and 16 h (Compound 1) or 3 h, 6 h or 16 h (Compound 2).

With `OC[C@H]1O[C@@H](n2cnc3c(N4CCc5ccccc5C4)ncnc32)[C@H](O)[C@@H]1O` [Compound 1, (2R,3R,4S,5R)-2-(6-(3,4-Dihydroisoquinolin-2(1H)-yl)-9H-purin-9-yl)-5-(hydroxymethyl)tetrahydrofuran-3,4-diol], the “effect on phosphorylation of Stat5” value in the experiment on Stat5a/b [1] (K562, 5 μM, 3 h) is “block phosphorylation of Stat5”; with Stat5a/b [2] (setting [4]), “block phosphorylation of Stat5”; with Stat5a/b [3] (setting [5]), “block phosphorylation of Stat5”.
As for `OC[C@H]1O[C@@H](n2cnc3c(NNc4ccccc4)ncnc32)[C@H](O)[C@@H]1O` [Compound 2, (2R,3S,4R,5R)-2-(hydroxymethyl)-5-(6-(2-phenylhydrazinyl)-9H-purin-9-yl)tetrahydrofuran-3,4-diol], the “effect on phosphorylation of Stat5” value with Stat5a/b [1] (K562, 5 μM, 3 h) is recorded as “block phosphorylation of Stat5”; with Stat5a/b [2] (setting [4]), “block phosphorylation of Stat5”; with Stat5a/b [3] (setting [5]) it was “block phosphorylation of Stat5”.
With `OC[C@H]1O[C@@H](n2ccc3c(NCc4ccccc4)ncnc32)[C@H](O)[C@@H]1O` [NBPP, N-(phenylmethyl)-7-β-D-ribofuranosyl-7H-pyrrolo[2,3-d]pyrimidin-4-amine], the “effect on phosphorylation of Stat5” value with Stat5a/b [1] (K562, indicated concentrations, 3 or 6 hours) is “inhibited phosphorylation of Stat5”; with Stat5a/b [2] (KCL22S imatinib-sensitive, 6 h or 16 h) it was “inhibits phosphorylation of Stat5”; in the experiment with Stat5a/b [3] (KCL22R imatinib-resistant, 6 h or 16 h), “inhibits phosphorylation of Stat5”.

The record behind these values is patent publication US20150209379A1, “TREATMENT OF PROSTATE CANCER AND HEMATOLOGIC NEOPLASMS” (THOMAS JEFFERSON UNIVERSITY, priority 2012, published 2015).
